Twelve compounds from US8916551B2, “Heterocyclic compound and use thereof” (Takeda Pharmaceutical Company Limited, priority 2010, dated 2014) can be followed below.

Data set [1] concerns the target T1, AMPA receptor (human GluR1 flip/stargazin expressed in CHO-K1 cells) (Homo sapiens, UniProt P42261).
T1 construct: expressed in transfected cells; host or cells: CHO-K1
Nature of the data set: AMPA receptor function enhancing activity using calcium influx as index. In kind it is cell-based. Conditions: test compound 30 μM with glutamic acid final 3 mM, change in fluorescence in 3 min, 100% = 3 mM glutamic acid + 300 μM cyclothiazide, 0% = 3 mM glutamic acid only. The method in brief: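 CHO-K1 clone stably co-expressing human GluR1 flip and stargazin, loaded with Calcium 4 dye plus probenecid. Compound at 30 μM was added with glutamate (3 mM final) and fluorescence change followed over 3 min. Activity is expressed as % of the 3 mM glutamate plus 300 μM cyclothiazide response, with glutamate alone as 0%.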

T1 sequence (P42261 19-906 isoform P42261-2 limits assumed): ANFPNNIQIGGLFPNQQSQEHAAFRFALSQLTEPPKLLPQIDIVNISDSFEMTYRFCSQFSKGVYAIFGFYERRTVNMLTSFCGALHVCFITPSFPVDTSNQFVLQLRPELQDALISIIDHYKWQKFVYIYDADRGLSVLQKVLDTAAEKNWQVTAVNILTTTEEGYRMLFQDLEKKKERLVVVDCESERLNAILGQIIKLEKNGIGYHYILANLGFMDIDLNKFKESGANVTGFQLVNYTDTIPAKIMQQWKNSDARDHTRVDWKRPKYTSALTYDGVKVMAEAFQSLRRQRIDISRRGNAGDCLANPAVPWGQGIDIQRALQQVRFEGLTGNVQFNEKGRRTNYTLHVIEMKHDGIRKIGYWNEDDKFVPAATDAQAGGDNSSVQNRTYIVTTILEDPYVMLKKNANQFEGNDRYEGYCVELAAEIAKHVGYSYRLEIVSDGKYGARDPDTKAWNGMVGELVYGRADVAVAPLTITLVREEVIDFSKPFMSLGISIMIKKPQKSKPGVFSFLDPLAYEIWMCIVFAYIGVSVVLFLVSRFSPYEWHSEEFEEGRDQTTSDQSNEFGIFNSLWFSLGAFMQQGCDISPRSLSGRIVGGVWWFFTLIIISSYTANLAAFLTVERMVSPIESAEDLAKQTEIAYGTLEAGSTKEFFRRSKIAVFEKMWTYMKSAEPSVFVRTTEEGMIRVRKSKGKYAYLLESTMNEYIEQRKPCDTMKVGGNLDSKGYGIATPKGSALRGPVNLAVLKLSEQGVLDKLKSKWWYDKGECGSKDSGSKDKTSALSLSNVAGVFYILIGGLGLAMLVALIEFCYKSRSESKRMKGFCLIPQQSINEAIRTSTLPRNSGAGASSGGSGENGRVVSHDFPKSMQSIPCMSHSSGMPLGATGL
T1 sequence (Q9Y698 whole entry partner): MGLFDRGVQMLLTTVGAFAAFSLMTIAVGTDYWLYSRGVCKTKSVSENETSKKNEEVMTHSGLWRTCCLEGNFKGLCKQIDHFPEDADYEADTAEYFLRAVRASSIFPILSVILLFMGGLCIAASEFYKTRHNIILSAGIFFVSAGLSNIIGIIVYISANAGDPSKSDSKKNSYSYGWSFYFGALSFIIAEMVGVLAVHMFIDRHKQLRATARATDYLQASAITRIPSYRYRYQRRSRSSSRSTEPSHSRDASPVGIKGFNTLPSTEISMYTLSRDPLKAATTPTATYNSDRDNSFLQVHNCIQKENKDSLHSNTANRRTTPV

In turn, `O=S1(=O)CCN2C=CC=C(c3ccc(OC(F)(F)F)cc3)C2=N1` [Example 34, 9-[4-(trifluoromethoxy)phenyl]-3,4-dihydropyrido[2,1-c][1,2,4]thiadiazine 2,2-dioxide] showed a melting point of 249 to 251 °C. The “activity (%)” value in data set [1] came to 78%.

As to `COc1ccc2ccc(OC3=CC=CN4CCS(=O)(=O)N=C34)cc2c1` [Example 59, 9-[(7-methoxynaphthalen-2-yl)oxy]-3,4-dihydropyrido[2,1-c][1,2,4]thiadiazine 2,2-dioxide], the melting point was in the range of 235 to 237 °C. For the same compound, the “activity (%)” value in data set [1] is on record as 72%.

For `CC(C)c1ccc(OCC2=CC=CN3CCS(=O)(=O)N=C23)cc1` [Example 61, 9-{[4-(1-methylethyl)phenoxy]methyl}-3,4-dihydropyrido[2,1-c][1,2,4]thiadiazine 2,2-dioxide], the melting point lay within 212 to 214 °C. Moreover, the “activity (%)” value in data set [1] was found to be 75%.

With `O=S1(=O)CCN2CCC[C@@H](c3ccc(Oc4ccccc4)cc3)C2=N1` [Example 63, (9S)-9-(4-phenoxyphenyl)-3,4,6,7,8,9-hexahydropyrido[2,1-c][1,2,4]thiadiazine 2,2-dioxide], the melting point lay in the range of 174 to 175 °C. Moreover, the “activity (%)” value in data set [1] was found to be 77%.

The compound `O=S1(=O)CCN2CCCC(c3ccc(-c4ccccc4)cc3)C2=N1` (stereo not drawn) [Example 64, 9-biphenyl-4-yl-3,4,6,7,8,9-hexahydropyrido[2,1-c][1,2,4]thiadiazine 2,2-dioxide] showed a melting point of 220 to 222 °C. Also, the “activity (%)” value in data set [1] amounted to 73%.

On to `O=S1(=O)CCN2CCCC(c3ccc(-c4ccccc4)cc3)C2=N1` (stereo not drawn) [Example 65, 9-biphenyl-4-yl-3,4,6,7,8,9-hexahydropyrido[2,1-c][1,2,4]thiadiazine 2,2-dioxide], for which the melting point lay within 224 to 227 °C. For the same compound, the “activity (%)” value in data set [1] is listed as 78%.

`CC(C)(C)COc1ccc(C2=CC=CN3CCS(=O)(=O)N=C23)cc1` [Example 67, 9-[4-(2,2-dimethylpropoxy)phenyl]-3,4-dihydropyrido[2,1-c][1,2,4]thiadiazine 2,2-dioxide]: the melting point was in the range of 258 to 259 °C. Besides, the “activity (%)” value in data set [1] came out at 68%.

Take `O=S1(=O)CCN2C=CN=C(c3ccc(OC4CCCCC4)cc3)C2=N1` [Example 68, 9-[4-(cyclohexyloxy)phenyl]-3,4-dihydropyrazino[2,1-c][1,2,4]thiadiazine 2,2-dioxide]: the melting point was 239 to 240 °C. Further, the “activity (%)” value in data set [1] was 77%.

`O=S1(=O)CCN2C=CC=C(c3ccc(OCC4CCOCC4)cc3)C2=N1` [Example 69, 9-[4-(tetrahydro-2H-pyran-4-ylmethoxy)phenyl]-3,4-dihydropyrido[2,1-c][1,2,4]thiadiazine 2,2-dioxide] had a melting point of 268 to 269 °C. In data set [1], the “activity (%)” value was 71%.

With `O=S1(=O)CCN2C=C(Cl)C=C(c3ccc(OC4CCCCC4)cc3)C2=N1` [Example 73, 7-chloro-9-[4-(cyclohexyloxy)phenyl]-3,4-dihydropyrido[2,1-c][1,2,4]thiadiazine 2,2-dioxide], the melting point was 284 to 287 °C. In data set [1], the “activity (%)” value stood at 75%.

The compound `O=S1(=O)CCN2C=CC=C(c3ccc(OCC4CCCO4)cc3)C2=N1` (stereo not drawn) [Example 75, 9-[4-(tetrahydrofuran-2-ylmethoxy)phenyl]-3,4-dihydropyrido[2,1-c][1,2,4]thiadiazine 2,2-dioxide] returned a melting point of 222 to 223 °C. For the same compound, the “activity (%)” value in data set [1] was found to be 81%.

For `O=S1(=O)CCN2C=C(Cl)C=C(c3ccc(Oc4ncccc4C(F)(F)F)cc3)C2=N1` [Example 78, 7-chloro-9-(4-{[3-(trifluoromethyl)pyridin-2-yl]oxy}phenyl)-3,4-dihydropyrido[2,1-c][1,2,4]thiadiazine 2,2-dioxide], the melting point lay within 264 to 265 °C. In addition, the “activity (%)” value in data set [1] came to 72%.

As a reminder, the melting point is the temperature, or range, at which the solid turns liquid.
